Biological target: T1, human TLR9 (Homo sapiens, UniProt Q9NR96)
T1 sequence (Q9NR96 26-1032): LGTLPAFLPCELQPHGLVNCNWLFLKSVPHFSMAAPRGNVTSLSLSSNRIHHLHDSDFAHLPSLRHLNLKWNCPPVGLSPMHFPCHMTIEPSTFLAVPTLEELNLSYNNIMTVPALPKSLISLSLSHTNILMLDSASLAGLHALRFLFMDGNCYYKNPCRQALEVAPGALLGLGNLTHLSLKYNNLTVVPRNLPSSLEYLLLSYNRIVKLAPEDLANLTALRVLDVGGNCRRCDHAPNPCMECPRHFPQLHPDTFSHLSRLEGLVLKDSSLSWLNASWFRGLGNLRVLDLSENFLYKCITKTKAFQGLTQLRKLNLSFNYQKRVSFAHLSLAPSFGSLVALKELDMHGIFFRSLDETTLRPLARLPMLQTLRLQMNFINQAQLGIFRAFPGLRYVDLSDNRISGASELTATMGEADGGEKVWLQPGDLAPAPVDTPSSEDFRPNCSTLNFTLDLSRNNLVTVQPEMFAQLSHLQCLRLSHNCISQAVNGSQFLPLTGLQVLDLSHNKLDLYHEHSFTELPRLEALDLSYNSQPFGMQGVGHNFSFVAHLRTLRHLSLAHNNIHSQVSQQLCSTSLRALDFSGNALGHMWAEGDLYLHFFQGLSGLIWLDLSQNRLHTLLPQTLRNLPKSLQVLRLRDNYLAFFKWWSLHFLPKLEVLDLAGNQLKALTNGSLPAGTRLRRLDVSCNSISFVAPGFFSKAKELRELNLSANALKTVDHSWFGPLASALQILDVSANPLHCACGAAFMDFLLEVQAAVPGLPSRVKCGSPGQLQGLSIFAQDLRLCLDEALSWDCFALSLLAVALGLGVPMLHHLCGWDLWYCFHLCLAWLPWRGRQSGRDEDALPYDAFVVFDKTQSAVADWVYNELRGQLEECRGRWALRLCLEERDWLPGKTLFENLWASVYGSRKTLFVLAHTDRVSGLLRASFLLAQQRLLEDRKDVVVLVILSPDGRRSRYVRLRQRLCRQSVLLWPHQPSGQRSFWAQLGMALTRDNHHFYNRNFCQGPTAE
Test: HEK293-Blue-hTLR-9 cells assay (SEAP reporter, ODN2006 stimulation)
Assay type: cell-based
Conditions: HEK293-Blue-hTLR9 cells, ODN2006, 20 hrs
Protocol: The following tests were carried out in order to determine the activity of the compounds of this invention in HEK293-Blue-hTLR-7/8/9 cells assay.
HEK293-Blue-hTLR-9 Cells Assay:
A stable HEK293-Blue-hTLR-9 cell line was purchased from InvivoGen (Cat. #: hkb-htlr9, San Diego, Calif., USA). These cells were originally designed for studying the stimulation of human TLR9 by monitoring the activation of NF-κB. A SEAP (secreted embryonic alkaline phosphatase) reporter gene was placed under the control of the IFN-β minimal promoter fused to five NF-κB and AP-1-binding sites. The SEAP was induced by activating NF-κB and AP-1 via stimulating HEK-Blue hTLR9 cells with TLR9 ligands. Therefore the reporter expression was declined by TLR9 antagonist under the stimulation of a ligand, such as ODN2006 (Cat. #: tlr1-2006-1, Invivogen, San Diego, Calif., USA), for incubation of 20 hrs. The cell culture supernatant SEAP reporter activity was determined using QUANTI-Blue™ kit (Cat. #: rep-qb1, Invivogen, San Diego, Calif., USA) at a wavelength of 640 nm, a detection medium that turns purple or blue in the presence of alkaline phosphatase.
HEK293-Blue-hTLR9 cells were incubated at a density of 250,000˜450,000 cells/mL in a volume of 170 μL in a 96-well plate in Dulbecco's Modified Eagle's medium (DMEM) containing 4.5 g/L glucose, 50 U/mL penicillin, […], 2 mM L-glutamine, 10% (v/v) heat-inactivated fetal bovine serum with addition of 20 μL test compound in a serial dilution in the presence of final DMSO at 1% and 10 μL of 20 uM ODN2006 in above DMEM, perform incubation under 37° C. in a CO2 incubator for 20 hrs. Then 20 μL of the supernatant from each well was incubated with 180 μL Quanti-blue substrate solution at 37° C. for 2 hrs and the absorbance was read at 620˜655 nm using a spectrophotometer. The signalling pathway that TLR9 activation leads to downstream NF-κB activation has been widely accepted, and therefore similar reporter assay was modified for evaluating TLR9 antagonist.

IC50 [nM] | Compound
33 | C[C@H]1C[C@@H](NCc2ccc3c(n2)CCNC3)CN(c2ccc(C#N)c3ncccc23)C1 [Example 30, 5-[(3S,5R)-3-methyl-5-(5,6,7,8-tetrahydro-1,6-naphthyridin-2-ylmethylamino)-1-piperidyl]quinoline-8-carbonitrile]
88 | C[C@H]1C[C@@H](NCc2cccc(N3CCNCC3)c2)CN(c2ccc(C#N)c3ncccc23)C1 [Example 8, 5-[(3S,5R)-3-methyl-5-[(3-piperazin-1-ylphenyl)methylamino]-1-piperidyl]quinoline-8-carbonitrile]
126 | Cc1cc(-c2ccc(CN[C@@H]3C[C@H](C)CN(c4ccc(C#N)c5ncccc45)C3)cc2)cc(C)n1 [Example 15, 5-[(3R,5S)-3-[[4-(2,6-dimethyl-4-pyridyl)phenyl]methylamino]-5-methyl-1-piperidyl]quinoline-8-carbonitrile]

Compound | IC50 [nM]
C[C@H]1C[C@@H](NCc2ccccc2)CN(c2ccc(C#N)c3ncccc23)C1 [Example R1, reference compound] | 1870

Source: patent US20220395496A1 (Hoffmann-La Roche Inc., priority 2019, published 2022)
